Entries after “also recorded” stand apart in the source; their conditions may differ.
Key:
Format in all cases: biochemical
11β-HSD2 [1] = biological target: T1, 11β-HSD2 (Mus musculus, UniProt P51661); experiment: 11β-HSD2 activity in mouse kidney microsomes; conditions: 100 μM
T1 construct: from tissue; host or cells: mouse kidney microsomes prepared in house
T1 sequence (P51661 1-386): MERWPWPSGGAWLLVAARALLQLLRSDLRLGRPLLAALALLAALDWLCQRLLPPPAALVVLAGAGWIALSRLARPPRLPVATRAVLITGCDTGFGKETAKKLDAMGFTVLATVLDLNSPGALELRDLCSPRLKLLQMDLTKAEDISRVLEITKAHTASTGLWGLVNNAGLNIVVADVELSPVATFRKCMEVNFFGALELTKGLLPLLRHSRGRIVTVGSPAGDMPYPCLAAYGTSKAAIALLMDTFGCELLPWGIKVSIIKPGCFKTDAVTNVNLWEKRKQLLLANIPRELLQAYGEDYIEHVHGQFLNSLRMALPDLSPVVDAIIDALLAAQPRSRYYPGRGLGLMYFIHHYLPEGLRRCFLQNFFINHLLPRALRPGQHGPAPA
Method: (§1) Preparation of Rat and Mouse Liver and Kidney Microsomes
(§2) The liver and kidney microsomes were prepared as previously described ([Guo et al., 2012]). Briefly, the tissue was homogenized in […] phosphate buffered saline (PBS) containing 0.25 M sucrose, and the nuclei and large cell debris were removed by centrifugation at 1500 g for 10 min. The supernatant was transferred to a tube and the mitochondria were removed by centrifugation at 10, 000 × g for 30 min. The supernatant was transferred to an ultracentrifuge tube and centrifuged twice at 105,000 × g, the resulting microsomal precipitate was collected. The protein content was measured by the BCA kit according to the manufacturer’s instruction. The protein concentration was adjusted to 20 mg/ml. These proteins were used to measure 11β-HSD1 and 11β-HSD2 activities.
(§3) Measurement of 11β-HSD2 Activity in Rat, Mouse, and Human Kidney Microsomes
(§4) The 11β-HSD2 assay was based on rat, mouse, and human kidney microsomes, as previously described ([Ge et al., 2005]). In brief, the 11β-HSD2 activity assay tube contained 25 nM substrate (cortisol for humans, CORT for rats and mice). […] The percentage conversion of cortisol to cortisone (humans) or CORT to 11DHC (rats and mice) was calculated by dividing the radioactive count of an 11keto-steroid product by the total count associated with both substrate and product.

11β-HSD1 = biological target: T2, 11β-HSD1 (Homo sapiens, UniProt P28845); experiment: 11β-HSD1 reductive activity in human liver microsomes
T2 construct: purchased Gentest (Woburn, MA); host or cells: human liver microsomes (tissue)
Method: Determination of 11β-HSD1 in Rat, Mouse, and Human Liver Microsomes
The reductive activity of 11β-HSD1 in rat, mouse, and human liver microsomes was measured as previously described ([Ge et al., 2005]). In short, the 11β-HSD1 activity assay tube contained 25 nM substrate, 11DHC (for rats or mice) or cortisone (for humans), spiked with 60,000 dpm of each 3H-steroid. 11β-HSD1 activity was measured using 11-DHC or cortisone as a substrate. A 25 nM steroid substrate is used because the concentration is within the physiological concentration range. Rat (10 μg), mouse (10 μg) and human (4 μg) liver microsomes were incubated with 11-ketosteroids, 0.2 mM NADPH, and various concentrations (10^−10–10^−5 M) of drug candidates at 37 °C for 60–90 min. The inhibitory ability of the chemical relative to the control (DMSO solvent) was measured. […] The reaction was stopped by adding 10 µL of 1 mM glycyrrhetinic acid and 1 ml of ice-cold ether. […] The steroids in chloroform and methanol (90:10, v/v) were chromatographically separated on a thin layer plate, and radioactivity was measured using a scanning radiometer (System AR2000, Bioscan Inc., Washington, DC, United States). The percentage of 11DHC being converted to CORT or cortisone being converted to cortisol can be calculated by dividing the radioactivity count of 11-OH-steroids by the total count. […]

11β-HSD2 [2] = biological target: T3, 11β-HSD2 (Rattus norvegicus, UniProt P50233); experiment: 11β-HSD2 activity in rat kidney microsomes; conditions: 100 μM
T3 construct: from tissue; host or cells: rat kidney microsomes prepared in house
T3 sequence (P50233 1-400): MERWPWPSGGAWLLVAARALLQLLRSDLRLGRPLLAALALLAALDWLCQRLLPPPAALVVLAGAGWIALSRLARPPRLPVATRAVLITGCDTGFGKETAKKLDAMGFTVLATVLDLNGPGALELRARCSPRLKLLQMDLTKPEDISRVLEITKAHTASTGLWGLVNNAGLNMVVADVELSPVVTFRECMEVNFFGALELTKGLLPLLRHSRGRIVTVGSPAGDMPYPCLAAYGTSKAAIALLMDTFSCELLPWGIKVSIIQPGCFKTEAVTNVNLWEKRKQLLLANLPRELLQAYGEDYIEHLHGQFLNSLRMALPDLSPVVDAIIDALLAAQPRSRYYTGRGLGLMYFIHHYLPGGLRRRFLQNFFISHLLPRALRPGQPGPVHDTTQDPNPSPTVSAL
Method: as §1, §2, §3, §4

T2 sequence (P28845 whole entry): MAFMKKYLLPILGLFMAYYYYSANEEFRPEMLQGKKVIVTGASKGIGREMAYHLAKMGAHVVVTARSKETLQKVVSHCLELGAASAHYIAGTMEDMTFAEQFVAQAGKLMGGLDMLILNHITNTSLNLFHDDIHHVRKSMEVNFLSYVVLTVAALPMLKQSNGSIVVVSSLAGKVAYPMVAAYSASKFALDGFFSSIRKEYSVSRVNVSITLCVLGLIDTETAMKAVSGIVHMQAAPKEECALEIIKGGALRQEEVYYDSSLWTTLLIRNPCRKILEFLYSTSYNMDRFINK

inhibition at 100 µM (11β-HSD1; 100 μM, initial screening, read-out: 11β-HSD1 inhibition, human enzyme): 85.4 ± 1.67%
IC50 (11β-HSD1; human liver microsomes, 25 nM cortisone, NADPH): 621 nM
Structure (SMILES): O=C1/C(=C/c2c(F)cccc2F)CC/C1=C\c1c(F)cccc1F [WZS08, (2E,5E)-2,5-bis(2,6-difluorobenzylidene) Cyclopentanone]
effect on 11β-HSD2 activity, mouse (11β-HSD2 [1]): did not affect; also recorded: almost no effect
effect on 11β-HSD2 activity, rat (11β-HSD2 [2]): did not affect; also recorded: almost no effect

Source: publication PMC8072159, “5-Bis-(2,6-difluoro-benzylidene) Cyclopentanone Acts as a Selective 11β-Hydroxysteroid Dehydrogenase one Inhibitor to Treat Diet-Induced Nonalcoholic Fatty Liver Disease in Mice” (Frontiers in Pharmacology, 2021)
